According to patent publication US8501794B2, “Compounds as cannabinoid receptor ligands” (priority 2007, dated 2013):

Assays:
human CB2 receptors = biological target: T1, human CB2 receptors (Homo sapiens, UniProt P34972); experiment: human CB2 radioligand binding assay ([3H]CP-55,940 competition)
T1 construct: expressed in transfected cells; host or cells: HEK293

rat CB2 [1] = biological target: T2, rat CB2 (Rattus norvegicus, UniProt Q9QZN9); experiment: rat CB2 radioligand binding assay ([3H]CP-55,940 competition); parameters: expressed in transfected cells; host or cells: HEK293
T2 sequence (Q9QZN9 1-360): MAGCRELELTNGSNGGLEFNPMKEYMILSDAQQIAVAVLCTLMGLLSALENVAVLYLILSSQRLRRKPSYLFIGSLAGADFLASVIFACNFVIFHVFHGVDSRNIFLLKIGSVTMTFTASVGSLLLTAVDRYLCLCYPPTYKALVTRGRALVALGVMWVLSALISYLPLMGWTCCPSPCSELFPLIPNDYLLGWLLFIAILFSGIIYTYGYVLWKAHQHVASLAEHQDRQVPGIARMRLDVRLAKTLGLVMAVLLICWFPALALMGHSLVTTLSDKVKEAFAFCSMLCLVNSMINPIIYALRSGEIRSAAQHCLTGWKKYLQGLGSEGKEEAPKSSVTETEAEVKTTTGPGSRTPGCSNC

rat CB2 [2] = biological target: T2, rat CB2; experiment: rat CB2 cyclase functional assay (HitHunter cAMP, HEK cells); assay type: cell-based; parameters: expressed in transfected cells; host or cells: HEK; settings: forskolin 18 μM

T1 sequence (P34972 whole entry): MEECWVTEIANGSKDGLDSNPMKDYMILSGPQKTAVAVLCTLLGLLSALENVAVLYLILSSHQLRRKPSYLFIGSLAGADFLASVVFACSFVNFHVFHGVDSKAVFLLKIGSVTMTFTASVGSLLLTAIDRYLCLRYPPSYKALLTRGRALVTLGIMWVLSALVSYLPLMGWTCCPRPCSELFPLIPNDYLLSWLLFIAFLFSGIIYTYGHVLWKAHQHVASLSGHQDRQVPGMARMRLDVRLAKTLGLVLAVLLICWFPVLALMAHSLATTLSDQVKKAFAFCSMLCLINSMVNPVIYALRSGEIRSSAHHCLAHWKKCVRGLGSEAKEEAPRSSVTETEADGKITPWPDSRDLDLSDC

Row | SMILES | Ki (human CB2 receptors) [nM] | Ki (rat CB2 [1]) [nM] | EC50 (rat CB2 [2]) [nM]
1 | COc1ccc(Cl)cc1C(=O)/N=c1\sn(C(C)(C)C)cc1CC1CCC1 [Example 38, N-[(5Z)-2-tert-butyl-4-(cyclobutylmethyl)isothiazol-5(2H)-ylidene]-5-chloro-2-methoxybenzamide] | 2.5 | 0.61 | 1.7
2 | COc1ccc(Cl)cc1C(=O)/N=c1\sn(C(C)(C)C)cc1OCCCCF [Example 158, N-[(5Z)-2-tert-butyl-4-(4-fluorobutoxy)isothiazol-5(2H)-ylidene]-5-chloro-2-methoxybenzamide] | 48 | 6.1 | 0.046
3 | CCCCc1cn(C(C)(C)C)s/c1=N\C(=NC#N)c1cc(Cl)ccc1OC [Example 110, N-[(5Z)-4-butyl-2-tert-butylisothiazol-5(2H)-ylidene]-5-chloro-N′-cyano-2-methoxybenzenecarboximidamide] | 3 | 1.6 | 0.12
4 | CCCCc1cn(C(C)(C)CF)s/c1=N\C(=O)c1cc(C(F)(F)F)ccc1OC [Example 152, N-[(5Z)-4-butyl-2-(2-fluoro-1,1-dimethylethyl)isothiazol-5(2H)-ylidene]-2-methoxy-5-(trifluoromethyl)benzamide] | 5.1 | 0.79 | 0.071
5 | C=CCc1cn(C(C)(C)C)s/c1=N\C(=O)c1cc(Cl)ccc1OC [Example 6, N-[(5Z)-4-allyl-2-tert-butylisothiazol-5(2H)-ylidene]-5-chloro-2-methoxybenzamide] | 210 | 16 | 2.4
6 | CCCCc1cn(C(C)(C)C)s/c1=N\C(=NC#N)c1cc(C(F)(F)F)ccc1OC[C@@H]1CCCN1C [Example 193] | 37 | 97 | 2.7
7 | COc1ccc(Cl)cc1C(=O)/N=c1\sn(C(C)(C)C)cc1CCCCC#N [Example 138, N-[(5Z)-2-tert-butyl-4-(4-cyanobutyl)isothiazol-5(2H)-ylidene]-5-chloro-2-methoxybenzamide] | 5.9 | 0.9 | 12.8
8 | COc1ccc(C(F)(F)F)cc1C(=O)/N=c1\sn(C(C)(C)C)cc1CC(C)C [Example 143, N-[(5Z)-2-tert-butyl-4-isobutylisothiazol-5(2H)-ylidene]-2-methoxy-5-(trifluoromethyl)benzamide] | 11 | 1.8 | 0.1
9 | CC(C)(C)n1cc(CCCC#N)/c(=N/C(=O)c2cc(Cl)ccc2OCC(N)=O)s1 [Example 141, 2-(2-amino-2-oxoethoxy)-N-[(5Z)-2-tert-butyl-4-(3-cyanopropyl)isothiazol-5(2H)-ylidene]-5-chlorobenzamide] | 56 | 15 | 0.094
10 | CCCCc1cn(C(C)(C)C)s/c1=N\C(=NC#N)c1cc(C(F)(F)F)ccc1OCC [Example 126, N-[(5Z)-4-butyl-2-tert-butylisothiazol-5(2H)-ylidene]-N′-cyano-2-ethoxy-5-(trifluoromethyl)benzenecarboximidamide] | 0.6 | 1.2 | 0.076
11 | CCCCc1cn(C(C)(C)C)s/c1=N\C(=O)[C@@]1(C)CC[C@@H](C(=O)OCC)C1(C)C [Example 176, Ethyl (1R,3S)-3-({[(5Z)-4-butyl-2-tert-butylisothiazol-5(2H)-ylidene]amino}carbonyl)-2,2,3-trimethylcyclopentanecarboxylate] | 16 | 7 | 1.1
12 | CCCCc1cn(C(C)(C)C)s/c1=N\C(=O)[C@H]1CC[C@@](C)(C(N)=O)C1(C)C [Example 171, (1R,3S)—N^3-[(5Z)-4-butyl-2-tert-butylisothiazol-5(2H)-ylidene]-1,2,2-trimethylcyclopentane-1,3-dicarboxamide] | 9 | 5.8 | 0.19
13 | CCCCc1cn(C(C)(C)C)s/c1=N\C(=O)c1cc(C)ccc1OC [Example 43, N-[(5Z)-4-butyl-2-tert-butylisothiazol-5(2H)-ylidene]-2-methoxy-5-methylbenzamide] | 18 | 2.6 | 0.23
14 | CCCCc1cn(C(C)(C)C(F)(F)F)s/c1=N\C(=O)c1cc(Cl)ccc1OC [Example 151, N-[(5Z)-4-butyl-2-(2,2,2-trifluoro-1,1-dimethylethyl)isothiazol-5(2H)-ylidene]-5-chloro-2-methoxybenzamide] | 9.1 | 0.4 | 0.072
15 | CCOc1ccc(C(F)(F)F)cc1C(=O)/N=c1\sn(C(C)(C)C)cc1CC(C)C [Example 146, N-[(5Z)-2-tert-butyl-4-isobutylisothiazol-5(2H)-ylidene]-2-ethoxy-5-(trifluoromethyl)benzamide] | 24 | 3.1 | 0.29
16 | CCOCc1cn(C(C)(C)C)s/c1=N\C(=O)c1cc(Cl)ccc1OC [Example 29, N-[(5Z)-2-tert-butyl-4-(ethoxymethyl)isothiazol-5(2H)-ylidene]-5-chloro-2-methoxybenzamide] | 180 | 13 | 0.41
17 | CCCCc1cn(C(C)(C)C)s/c1=N\C(=O)[C@]1(C)CC[C@H](NC(N)=O)C1(C)C [Example 245, (1R,3S)-3-[(aminocarbonyl)amino]-N-[(5Z)-4-butyl-2-tert-butylisothiazol-5(2H)-ylidene]-1,2,2-trimethylcyclopentanecarboxamide] | 32 | 35 | 9.6
18 | CCCCc1cn(C(C)(C)C)s/c1=N\C(=O)c1cc(Cl)ccc1OC [Example 1, N-[(5Z)-4-butyl-2-tert-butylisothiazol-5(2H)-ylidene]-5-chloro-2-methoxybenzamide] | 16 | 1.5 | 0.72
19 | CCCCc1cn(C(C)(C)C)s/c1=N\C(=O)[C@]1(C)CC[C@H](C(=O)NC)C1(C)C [Example 184, (1R,3S)—N^1-[(5Z)-4-butyl-2-tert-butylisothiazol-5(2H)-ylidene]-N^3,1,2,2-tetramethylcyclopentane-1,3-dicarboxamide] | 6.5 | 3.2 | 0.41
20 | CCCCc1cn(C(C)(C)C)s/c1=N\C(=O)c1cc(Cl)ccc1OCC#N [Example 153, N-[(5Z)-4-butyl-2-tert-butylisothiazol-5(2H)-ylidene]-5-chloro-2-(cyanomethoxy)benzamide] | 13 | 2.1 | 0.061
21 | CCCCc1cn(C(C)(C)C)s/c1=N\C(=O)C1=CC(=O)CC(C)(C)O1 [Example 125, N-[(5Z)-4-butyl-2-tert-butylisothiazol-5(2H)-ylidene]-2,2-dimethyl-4-oxo-3,4-dihydro-2H-pyran-6-carboxamide] | 31 | 1 | 2.6
22 | COc1ccc(C(F)(F)F)cc1C(=O)/N=c1\sn(C(C)(C)C)cc1Cc1ccco1 [Example 71, N-[(5Z)-2-tert-butyl-4-(2-furylmethyl)isothiazol-5(2H)-ylidene]-2-methoxy-5-(trifluoromethyl)benzamide] | 28 | 1.9 | 0.36
23 | CCCCc1cn(C(C)(C)C)s/c1=N\C(=O)c1cc(S(C)(=O)=O)ccc1OC [Example 48, N-[(5Z)-4-butyl-2-tert-butylisothiazol-5(2H)-ylidene]-2-methoxy-5-(methylsulfonyl)benzamide] |  | 22 | 0.56
24 | CCCCc1cn(C(C)(C)C)s/c1=N\C(=O)[C@@H]1CC[C@](C)(C(=O)NCC)C1(C)C [Example 210, (1S,3R)—N^3-[(5Z)-4-butyl-2-tert-butylisothiazol-5(2H)-ylidene]-N^1-ethyl-1,2,2-trimethylcyclopentane-1,3-dicarboxamide] | 36 | 49 | 0.19
25 | COc1ccc(Cl)cc1C(=O)/N=c1\sn(C(C)(C)C)cc1Cc1ccco1 [Example 50, N-[(5Z)-2-tert-butyl-4-(2-furylmethyl)isothiazol-5(2H)-ylidene]-5-chloro-2-methoxybenzamide] | 19 | 2.5 | 0.13
26 | COC(=O)CCCc1cn(C(C)(C)C)s/c1=N\C(=O)c1cc(C#N)ccc1OC [Example 46, Methyl 4-{(5Z)-2-tert-butyl-5-[(5-cyano-2-methoxybenzoyl)imino]-2,5-dihydroisothiazol-4-yl}butanoate] |  | 17 | 0.56
27 | CCCCc1cn(C(C)(C)C)s/c1=N\C(=O)[C@]1(C)CC[C@H](C(=O)NCCO)C1(C)C [Example 203, (1R,3S)—N^1-[(5Z)-4-butyl-2-tert-butylisothiazol-5(2H)-ylidene]-N^3-(2-hydroxyethyl)-1,2,2-trimethylcyclopentane-1,3-dicarboxamide] | 70 |  | 3.9
28 | CCCCc1cn(C(C)(C)C)s/c1=N\C(=O)[C@@H]1CC[C@](C)(C(=O)OC)C1(C)C [Example 204, Methyl (1S,3R)-3-({[(5Z)-4-butyl-2-tert-butylisothiazol-5(2H)-ylidene]amino}carbonyl)-1,2,2-trimethylcyclopentanecarboxylate] | 0.6 |  | 0.34
29 | CCCCc1cn(C(C)(C)C)s/c1=N\C(=O)[C@]1(C)CC[C@H](C(=O)NCC)C1(C)C [Example 201, (1R,3S)—N^1-[(5Z)-4-butyl-2-tert-butylisothiazol-5(2H)-ylidene]-N^3-ethyl-1,2,2-trimethylcyclopentane-1,3-dicarboxamide] | 180 |  | 3.5
